{"source": "patent US7510825B2", "about": "“Kits and methods for detection of apoptotic cells” (NST NeuroSurvival Technologies Ltd, priority 2000, dated 2009)", "test_system": "Jurkat cells (T-cell leukemia)", "experiment": "Binding of DDC and PI to Jurkat cells treated with CD95, confocal microscopy", "assay_type": "cell-based, human", "settings": "CD95 for 180 minutes; confocal microscope", "description": "For microscopic analysis the concentration of cells should be within 1-2×10^7/ml. […] If fixation is needed, it should be performed after DDC staining. • 1. Adjusting the cells to 1-2×10^7/ml in buffer. • 2. Transferring 96 μl from the cell suspension to an eppendorf and staining the cells by adding 4 μl from the DDC solution. Incubating for 10-40 minutes at RT protected from light. • 3. A double labeling could be conducted with PI, if desired. In such a case, 1 μl is added from the PI solution. • 4, Placing the cell suspension on a glass slide. Covering the cells with a glass coverslip. Alternatively, for analyzing adherent cells, cells may grow directly on coverslip. Staining the cells by incubation with DDC (4 μl of DDC/96 μl buffer reaction) or 10-40 minutes and PI (1 μl). […] Observing the cells under fluorescent or confocal microscope equipped with the appropriate UV filter (excitation at 360-370 nm, band pass, and emission at 420 nm, barrier filter. Using a Triple filter (Hoechst/FITC/Texas Red) allows concomitant observation of both DDC and PI. Quantitative Assay for DDC Accumulation using Fluorescene Spectroscopy\nJurkat cells (T-cell leukemia) were treated with CD95 for 180 minutes and incubated with DDC followed by incubation with Propidium Iodide (PI) as detailed in DDC protocols IIIC. The cells were analyzed under fluorescent confocal microscope using a UV filter. […]", "data": [{"smiles": "CC[N+](C)(CC)CCC[n+]1c(-c2ccccc2)c2cc(N)ccc2c2ccc(N)cc21.[I-].[I-]", "note": "[PI, Propidium Iodide, reference compound]", "values": [{"measurement": "cellular staining pattern in apoptotic cells", "result": "Nuclear staining by PI can be seen only in late apoptotic cells"}]}]}
